Tests used:
Format in all cases: in vivo
[1] = Tasting in sugar/lemon flavor water against control without compound; details: 1 gram of 1000 ppm EtOH solution with 5 g sugar, 1 gram 1% lemon flavor, 93 grams water
Procedure: Five grams of sugar, 1 gram of a 1% solution of lemon flavor in EtOH and 1 gram of a 1000 ppm solution of 2-(4-methoxyphenyl)-4H-benzo[d][1,3]oxathiine in EtOH were added to 93 grams water. The resulting solution was tasted relative to a control made up of 5 g sugar, 1 gram lemon flavor and 94 g water.
Five grams of sugar, 1 gram of a 1% solution of lemon flavor in EtOH and 1 gram of a 1000 ppm solution of 4-(4H-benzo[d][1,3]oxathiin-2-yl)phenol in EtOH were added to 93 grams water. The resulting solution was tasted relative to a control made up of 5 g sugar, 1 gram lemon flavor and 94 g water.

[2] = Tasting of a dilute solution in de-ionized water against water as control
Procedure: A 0.1% w/w solution of 5-(4H-benzo[d][1,3]oxathiin-2-yl)-2-methoxyphenol was prepared in ethanol and diluted, with good mixing, into de-ionized water: thereby, generating a 1 ppm solution of 5-(4H-benzo[d][1,3]oxathiin-2-yl)-2-methoxyphenol in water. This solution was tasted using de-ionized water as the control.
A 20 ppm solution of 5-(4H-benzo[d][1,3]oxathiin-2-yl)-2,3-dimethoxyphenol (0.1% w/w in EtOH) was prepared in de-ionized water. The resulting solution was evaluated against de-ionized water as the control.
One gram of a 1000 ppm solution of 2-(4-methoxyphenyl)-4H-benzo[d][1,3]oxathiine in EtOH was added to 99 grams of water generating a 10 ppm taste solution. This solution was tasted relative to water.
One gram of a 1000 ppm solution of 4-(4H-benzo[d][1,3]oxathiin-2-yl)phenol in EtOH was added to 99 grams of water generating a 10 ppm taste solution. This solution was tasted relative to water.

[3] = Tasting in cantaloupe-flavored taffy against control without compound; details: 0.14% w/w of a 0.1% w/v EtOH solution in cantaloupe-flavored taffy with malic acid
Procedure: A desired quantity of taffy was chipped off using hammer and chisel and melted in the microwave for 5-30 seconds depending on batch size. Next, 1.2% w/w of a cantaloupe flavor (Givaudan) was added to 98.26% w/w sample of the taffy followed by 0.4% w/w of granular malic acid and 0.14% w/w of 5-(4H-benzo[d][1,3]oxathiin-2-yl)-2-methoxyphenol (0.1% w/v in EtOH). The control sample was produced the same by increasing the taffy base to make up for the absence of 5-(4H-benzo[d][1,3]oxathiin-2-yl)-2-methoxyphenol in the formula. In both the control and the experimental sample, the contents were well mixed by hand while wearing gloves. The taffy was shaped into individual portions and covered in an airtight container overnight.

[4] = Tasting in pistachio-flavored sweetened milk against control without compound; details: 0.8 ppm sample in pistachio-flavored sweetened milk
Procedure: A pistachio-flavored sweetened milk was prepared using 87.52% by weight of 2% reduced fat milk, 10% by weight of granulated fruit sugar, 1.4% w/w of FD&C Blue #1 (0.01% w/w in water), 0.8% w/w of FD&C yellow #5 (0.1% w/w in water). 0.2% w/w of natural pistachio flavor (Givaudan) and 0.08% of a 0.10% w/w solution of 5-(4H-benzo[d][1,3]oxathiin-2-yl)-2-methoxyphenol in ethanol generating a 0.8 ppm sample. The control was prepared the same by increasing the milk to 87.6% and leaving out 5-(4H-benzo[d][1,3]oxathiin-2-yl)-2-methoxyphenol.

[5] = Tasting in banana-flavored thawed vanilla ice cream against control without compound; details: 0.02 g of a 1% EtOH solution with 0.02 g banana flavor in 99.96 g thawed vanilla ice cream
Procedure: Vanilla ice cream was thawed in the microwave for 20 seconds. Next, 0.02 g of N&A banana ice cream flavor and 0.02 g of a 1% solution of 5-(4H-benzo[d][1,3]oxathiin-2-yl)-2-ethoxyphenol in EtOH were added to 99.96 g of the thawed vanilla ice cream. The resulting mixture was mixed well with a spoon and tasted relative to the control, which was made up of 0.02 g of the N&A banana flavor in 99.98 g of the thawed vanilla ice cream.

[6] = Tasting in sweetened lime-flavored beverage against control without compound; details: 0.07% w/w of a 1.0% w/w EtOH solution in lime beverage (10% fruit sugar, citric acid)
Procedure: Granulated fruit sugar, 10% w/w, 0.25% w/W of citric acid, 0.24% w/w of FD&C yellow #5 (0.1% w/w in water), 0.24% of FD&C blue #1 (0.01% w/w in water), 0.1% w/w 15 fold lime oil (1.0% w/w in EtOH), 0.03% w/v of sodium citrate and 0.07% w/w of 5-(4H-benzo[d][1,3]oxathiin-2-yl)-2,3-dimethoxyphenol (1.0% w/w in EtOH) were added to 89.07% w/v of de-ionized water. The control was prepared by eliminating 5-(4H-benzo[d][1,3]oxathiin-2-yl)-2,3-dimethoxyphenol and increasing the water content to 89.14%.

[7] = Tasting in CoolMint Listerine against CoolMint Listerine as control; details: 0.08% w/w of a 1.0% w/w EtOH solution in 99.92% w/w CoolMint Listerine
Procedure: A 0.08% w/w sample of 5-(4H-benzo[d][1,3]oxathiin-2-yl)-2,3-dimethoxyphenol (1.0% w/w in EtOH) was added to 99.92% w/w CoolMint Listerine™ and the contents were mixed well. The resulting mixture was tasted using CoolMint Listerine™ as the control.

[8] = Tasting in almond-flavored 2% milk against control without compound; details: 0.01 g of a 1% EtOH solution with 0.01 g natural almond flavor in 99.98 g of 2% milk
Procedure: Natural almond flavor 0.01 g and 0.01 g of a 1% solution of 4-(4H-benzo[d][1,3]oxathiin-2-yl)benzonitrile in EtOH were added to 99.98 g of 2% milk and the contents were mixed well. This solution was tasted relative to the control, which was made up of 0.01 g of natural almond flavor and 99.99 g of 2% milk.

[9] = 10 ppm taste solution in water, tasted relative to water

COc1ccc(C2OCc3ccccc3S2)cc1 (stereo not drawn) [2-(4-methoxyphenyl)-4H-benzo[d][1,3]oxathiine]
Comments on flavor modification [1]: cooling, anise, sweeter, bitter peel, more acidic, tingle, lingering flavor, better aroma and refreshing
Comments on flavor properties [2, 9]: cooling, slightly anisic, lingering cooling

COc1ccc(C2OCc3ccccc3S2)cc1O (stereo not drawn) [5-(4H-benzo[d][1,3]oxathiin-2-yl)-2-methoxyphenol]
Comments on flavor modification [3]: sweeter, cooling, enhanced sourness, salivating, aroma enhancement and increased impact
Comments on flavor modification [4]: enhanced flavor impact, sweeter, cooling, enhanced creaminess, enhanced nutty character, sour aftertaste and brighter
Comments on flavor properties relative to the control ([2]; 1 ppm solution in water, control de-ionized water): sweet, cooling and lingering

CCOc1ccc(C2OCc3ccccc3S2)cc1O (stereo not drawn) [Example 1, 5-(4H-benzo[d][1,3]oxathiin-2-yl)-2-ethoxyphenol]
Comments on flavor modification [5]: enhances flavor, makes the banana riper, increases creaminess, sweeter and cooling

COc1cc(C2OCc3ccccc3S2)cc(O)c1OC (stereo not drawn) [Example 2, 5-(4H-benzo[d][1,3]oxathiin-2-yl)-2,3-dimethoxyphenol]
Comments on flavor modification [6]: sweet, cooling, astringent, juicy, mouth-watering and tart/bite
Comments on flavor modification [7]: retronasal burn, cooling enhancement, intensifies flavor, increased eucalyptus, slow onset then strong burn, sweet and alcohol enhancement
Comments on flavor properties ([2]; 20 ppm solution in de-ionized water, control de-ionized water): cooling, sweet, burns tongue, lingering sweetness, bitter and lingering cooling

N#Cc1ccc(C2OCc3ccccc3S2)cc1 (stereo not drawn) [Example 3, 4-(4H-benzo[d][1,3]oxathiin-2-yl)benzonitrile]
Comments on flavor modification [8]: stronger flavor, more toasted note, earthy note, more authentic, cooling, bitter almond like, sweeter, more nutty and nut skin

Oc1ccc(C2OCc3ccccc3S2)cc1 (stereo not drawn) [Example 4, 4-(4H-benzo[d][1,3]oxathiin-2-yl)phenol]
Comments on flavor modification [1]: cooling, dirty, sweeter, lemon peel, nutty and bitter
Comments on flavor properties [2, 9]: slightly sweet and slightly alliaceous

Source: patent US8309598B2, “Cooling compounds” (Givaudan S.A., priority 2007, dated 2012)
